Results from patent US20260232666A1, “COMPOSITIONS AND METHODS FOR INHIBITION OF RAS” (TheRas, Inc., priority 2023, published 2026).

Assays:
[1] = molecular target: T1, GppNHp-loaded KRAS4b (amino acids 1-169) G12C/C118S protein (Homo sapiens, UniProt P01116, C118S/G12C); assay: Covalent cysteine 12 modification by MALDI-TOF MS, GppNHp-loaded KRAS G12C; format: binding; conditions: 15 minutes reaction time point
T1 construct: KRAS4b (amino acids 1-169) G12C/C118S protein; made in house
Procedure, shortened: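 Protein (1 μM) was incubated with compound at a 1:2.5 protein:compound ratio in 20 mM HEPES, 150 mM NaCl, 1 mM MgCl2, pH 7.3, at room temperature in the dark. After 15 min, samples were mixed into sinapinic acid matrix and analysed by linear-mode MALDI-TOF. Modification is adduct peak height over summed unmodified plus adduct heights.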

pERK in NCI-H358 cells = assay: Cell-based pERK HTRF assay (pERK inhibition in H358 cells); conditions: 30 min incubation
Procedure, shortened: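 NCI-H358 cells were seeded at 4×10^4 cells/well in RPMI/10% FBS, then treated next day for 30 min at 0.25% DMSO (9-point, 3-fold series from 75 μM). Lysates were read by HTRF (d2/Eu cryptate antibody pair, 615 nm emission) after 4–24 h at room temperature to give pERK IC50.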

Row | SMILES | GppNHp-KRAS G12C percent of modification [1] | IC50 (pERK in NCI-H358 cells; Homo sapiens, NCI-H358, 0.5 h) [µM] | IC50 (pERK in NCI-H358 cells) [µM]
1 | C=CC(=O)N1C[C@H](C)N(c2nc(OC[C@@]34CCCN3C[C@H](F)C4)nc3c(F)c(-c4ccc(F)c5sc(N)c(C#N)c45)c(Cl)cc23)C[C@H]1C (atropisomer, axis not shown) [Compound 102] | A (percent of modification ≥70%) | < 0.1 | –
2 | C=CC(=O)N1C[C@H](C)N(c2nc(OC[C@@]34CCCN3C[C@H](F)C4)nc3c(F)c(-c4ccc(F)c5sc(N)c(C#N)c45)c(Cl)cc23)C[C@H]1C (atropisomer, axis not shown) [Compound 103] | D (percent of modification <10%) | – | 0.1 to 1
3 | C=CC(=O)N1CC[C@@H](N(C)c2nc(OC[C@@H]3CC4(CC4)CN3C)nc3c(F)c(-c4ccc(F)c5sc(N)c(C#N)c45)c(C(F)(F)F)cc23)[C@@H]1C (atropisomer, axis not shown) [Compound 111] | A (percent of modification ≥70%) | < 0.1 | –
4 | C=CC(=O)N1CC[C@@H](N(CC)c2nc(OC[C@@H]3C[C@@H](F)CN3C)nc3c(F)c(-c4ccc(F)c5sc(N)c(C#N)c45)c(C(F)(F)F)cc23)[C@H]1C (atropisomer, axis not shown) [Compound 113] | A (percent of modification ≥70%) | – | < 0.1
5 | C=CC(=O)N1CC[C@@H](N(CC)c2nc(OC[C@@H]3C[C@@H](F)CN3C)nc3c(F)c(-c4ccc(F)c5sc(N)c(C#N)c45)c(C(F)(F)F)cc23)[C@H]1C (atropisomer, axis not shown) [Compound 114] | D (percent of modification <10%) | – | > 1
6 | C=CC(=O)N1CC[C@@H](N(C)c2nc(OC[C@@H]3CCCN3C)nc3c(F)c(-c4ccc(F)c5sc(N)c(C#N)c45)c(Cl)cc23)[C@H]1C (atropisomer, axis not shown) [Compound 118] | A (percent of modification ≥70%) | – | < 0.1
7 | C=CC(=O)N1CC[C@@H](N(C)c2nc(OC[C@@H]3CCCN3C)nc3c(F)c(-c4ccc(F)c5sc(N)c(C#N)c45)c(Cl)cc23)[C@H]1C (atropisomer, axis not shown) [Compound 119] | D (percent of modification <10%) | – | > 1
8 | C=CC(=O)N1CC[C@@H](N(CC)c2nc(OC[C@@H]3CC4(CC4)CN3C)nc3c(F)c(-c4ccc(F)c5sc(N)c(C#N)c45)c(Cl)cc23)[C@H]1C (atropisomer, axis not shown) [Compound 120] | A (percent of modification ≥70%) | – | < 0.1
9 | C=CC(=O)N1CC[C@@H](N(CC)c2nc(OC[C@@H]3CC4(CC4)CN3C)nc3c(F)c(-c4ccc(F)c5sc(N)c(C#N)c45)c(Cl)cc23)[C@H]1C (atropisomer, axis not shown) [Compound 121] | D (percent of modification <10%) | – | > 1
10 | C=CC(=O)N1CC[C@@H](N(C)c2nc(OC[C@@H]3CCCN3C)nc3c(F)c(-c4ccc(F)c5sc(N)c(C#N)c45)c(C(F)(F)F)cc23)[C@H]1C (atropisomer, axis not shown) [Compound 131] | A (percent of modification ≥70%) | – | < 0.1
11 | C=CC(=O)N1CC[C@@H](N(C)c2nc(OC[C@@H]3CCCN3C)nc3c(F)c(-c4ccc(F)c5sc(N)c(C#N)c45)c(C(F)(F)F)cc23)[C@H]1C (atropisomer, axis not shown) [Compound 132] | D (percent of modification <10%) | – | > 1
12 | C=CC(=O)N1CC[C@H](N(CC)c2nc(OC[C@@]34CCCN3C[C@H](F)C4)nc3c(F)c(-c4ccc(F)c5sc(N)c(C#N)c45)c(C(F)(F)F)cc23)C1 (atropisomer, axis not shown) [Compound 171] | C (10%≤percent of modification <50%) | < 0.1 | –
13 | C=CC(=O)N1C[C@H](N(C)c2nc(OC[C@@]34CCCN3C[C@H](F)C4)nc3c(F)c(-c4ccc(F)c5sc(N)c(C#N)c45)c(C(F)(F)F)cc23)C[C@H]1C (atropisomer, axis not shown) [Compound 176] | A (percent of modification ≥70%) | < 0.1 | –
14 | C=CC(=O)N1C[C@H](N(C)c2nc(OC[C@@]34CCCN3C[C@H](F)C4)nc3c(F)c(-c4ccc(F)c5sc(N)c(C#N)c45)c(C(F)(F)F)cc23)C[C@H]1C (atropisomer, axis not shown) [Compound 177] | D (percent of modification <10%) | – | 0.1 to 1
15 | C=CC(=O)N1CC[C@@H](N(CC)c2nc(OC[C@@H]3C[C@@H](OC)CN3C)nc3c(F)c(-c4ccc(F)c5sc(N)c(C#N)c45)c(C(F)(F)F)cc23)[C@H]1C (single isomer, unassigned) [Compound 116] | A (percent of modification ≥70%) | – | < 0.1
16 | C=CC(=O)N1CC[C@@H](N(CC)c2nc(OC[C@@H]3C[C@@H](OC)CN3C)nc3c(F)c(-c4ccc(F)c5sc(N)c(C#N)c45)c(C(F)(F)F)cc23)[C@H]1C (single isomer, unassigned) [Compound 117] | D (percent of modification <10%) | – | > 1
17 | C=CC(=O)N1CC[C@@H](N(C)c2nc(OC[C@@H]3C[C@@H](OC)CN3C)nc3c(F)c(-c4ccc(F)c5sc(N)c(C#N)c45)c(C(F)(F)F)cc23)[C@H]1C (single isomer, unassigned) [Compound 172] | A (percent of modification ≥70%) | < 0.1 | –
18 | C=CC(=O)N1CC[C@@H](N(C)c2nc(OC[C@H]3C[C@@H](OC)CN3C)nc3c(F)c(-c4ccc(F)c5sc(N)c(C#N)c45)c(C(F)(F)F)cc23)[C@H]1C (single isomer, unassigned) [Compound 173] | A (percent of modification ≥70%) | < 0.1 | –
19 | C=CC(=O)N1CC[C@@H](N(C)c2nc(OC[C@@H]3C[C@@H](OC)CN3C)nc3c(F)c(-c4ccc(F)c5sc(N)c(C#N)c45)c(C(F)(F)F)cc23)[C@H]1C (single isomer, unassigned) [Compound 174] | D (percent of modification <10%) | – | 0.1 to 1
20 | C=CC(=O)N1CC[C@@H](N(C)c2nc(OC[C@H]3C[C@@H](OC)CN3C)nc3c(F)c(-c4ccc(F)c5sc(N)c(C#N)c45)c(C(F)(F)F)cc23)[C@H]1C (single isomer, unassigned) [Compound 175] | D (percent of modification <10%) | – | 0.1 to 1
21 | C=CC(=O)N1CC[C@@H](N(C)c2nc(OC[C@@]34CCCN3C[C@H](F)C4)nc3c(F)c(-c4ccc(F)c5sc(N)c(C#N)c45)ccc23)[C@H]1CC [Compound 4] | A (percent of modification ≥70%) | < 0.1 | –
22 | C=CC(=O)N1CCC(N(C)c2nc(OC[C@@]34CCCN3C[C@H](F)C4)nc3cc(-c4ccc(F)c5sc(N)c(C#N)c45)c(C#N)cc23)[C@H]1CC (stereo partly drawn) [Compound 7] | A (percent of modification ≥70%) | < 0.1 | –
23 | C=CC(=O)N1CCC(N(CC)c2nc(OC[C@@]34CCCN3C[C@H](F)C4)nc3c(F)c(-c4ccc(F)c5sc(N)c(C#N)c45)c(C(F)(F)F)cc23)[C@H]1CC (stereo partly drawn) [Compound 8] | C (10%≤percent of modification <50%) | < 0.1 | –
24 | C=CC(=O)N1CCC(N(C)c2nc(OC[C@@H]3CCCN3C)nc3c(F)c(-c4nc(N)cc(C)c4C(F)(F)F)c(Cl)cc23)[C@H]1C (stereo partly drawn) [Compound 9] | C (10%≤percent of modification <50%) | 0.1 to 1 | –
25 | C=CC(=O)N1CCC(N(C)c2nc(OC[C@@]34CCCN3C[C@H](F)C4)nc3c(F)c(-c4nc(N)cc(C)c4C(F)(F)F)c(Cl)cc23)[C@H]1C (stereo partly drawn) [Compound 10] | B (50≤percent of modification <70%) | < 0.1 | –
26 | C=CC(=O)N1CCC(N(CC)c2nc(OC[C@@]34CCCN3C[C@H](F)C4)nc3c(F)c(-c4ccc(F)c5sc(N)c(C#N)c45)ccc23)[C@H]1CC (stereo partly drawn) [Compound 11] | A (percent of modification ≥70%) | 0.1 to 1 | –
27 | C=CC(=O)N1CCC(N(CC)c2nc(OC[C@@]34CCCN3C[C@H](F)C4)nc3c(F)c(-c4ccc(F)c5sc(N)c(C#N)c45)c(Cl)cc23)[C@H]1CC (stereo partly drawn) [Compound 12] | C (10%≤percent of modification <50%) | < 0.1 | –
28 | C=CC(=O)N1CCC(N(CC)c2nc(OC[C@@]34CCCN3C[C@H](F)C4)nc3cc(-c4ccc(F)c5sc(N)c(C#N)c45)c(C#N)cc23)[C@H]1CC (stereo partly drawn) [Compound 14] | A (percent of modification ≥70%) | 0.1 to 1 | –
29 | C=CC(=O)N1CC[C@@H](N(CC)c2nc(OC[C@@]34CCCN3C[C@H](F)C4)nc3c(F)c(-c4ccc(F)c5sc(N)c(C#N)c45)ccc23)[C@H]1C [Compound 17, 4-(4-(((2R,3R)-1-acryloyl-2-methylpyrrolidin-3-yl)(ethyl)amino)-8-fluoro-2-(((2R,7aS)-2-fluorotetrahydro-1H-pyrrolizin-7a(5H)-yl)methoxy)quinazolin-7-yl)-2-amino-7-fluorobenzo[b]thiophene-3-carbonitrile] | A (percent of modification ≥70%) | < 0.1 | –
30 | C=CC(=O)N1CC[C@@H](N(C)c2nc(OC[C@@]34CCCN3C[C@H](F)C4)nc3c(F)c(-c4ccc(F)c5sc(N)c(C#N)c45)c(C(F)(F)F)cc23)[C@H]1CC [Compound 18] | B (50≤percent of modification <70%) | < 0.1 | –
